# Test results as given in patent US20080161248A1, “Methods and Compositions for Therapeutic Treatment” (priority 2006, published 2008).
# Where two headings read alike, the source gives them in different places.
# Tests used:
# [1] = test system: mouse spleen cells, response to LPS; assay: In vitro LPS assay on spleen cells; assay type: cell-based; settings: high ([…]10^6 cells/well) and low (8×10^5 cells/well) cell concentration
# From the text: Animals: 8-9 weeks-old Lewis and Brown Norway male rats were obtained from Charles River Laboratories. General procedures for animal care and housing was in accordance with the National Research Council (NRC) Guide for the Care and Use of Laboratory Animals (1996) and the Animal Welfare Standards incorporated in 9 CFR Part 3, 1991.
# Spleens were collected for use in in vitro Con A and LPS assays.
# FIGS. 10 and 11 show the effect of quercetin and tacrolimus on response of mouse spleen cells to LPS at a high (1.6×10^6 cells/well) and low (8×10^5 cells/well) cell concentration, respectively.
# [2] = cited from earlier work
# [3] = kidney transplant patients, cited from earlier work
# [4] = body surface area corrections, cited from earlier work
smiles,measurement,setting,value
"C=CC[C@@H]1/C=C(\C)C[C@H](C)C[C@H](OC)C2O[C@@](O)(C(=O)C(=O)N3CCCC[C@H]3C(=O)O[C@H](/C(C)=C/[C@@H]3CC[C@@H](O)[C@H](OC)C3)[C@H](C)[C@@H](O)CC1=O)[C@H](C)C[C@@H]2OC (relative stereo) [Prograf, [3S-[3R[E(1S*,3S*,4S*)], 4S*,5R*,8S*,9E,12R*,14R*,15S*,16R*,18S*,19S*,26aR*]]-,6,8,11,12,13,14,15,16,17,18,19,24,25,26,26a-hexadecahydro-5,19-dihydroxy-3-[2-(4-hydroxy-3-methoxycyclohexyl)-1-methylethenyl]-14,16-dimethoxy-4,10,12,18-tetramethyl-8-(2-propenyl)-15,19-epoxy-3H-pyrido[2,1-c][1,4]oxaazacyclotricosine-1,7,20,21 (4H,23H)-tetrone, monohydrate]",effect on response of spleen cells to LPS (proliferation),[1],inhibited LPS-induced proliferation in a dose dependent manner
same,erythrocyte and plasma protein binding,[2],extensive
same,Adverse event: Abdominal Pain,[3],33%
same,Adverse event: Anemia,[3],30%
same,Adverse event: Arthralgia,[3],25%
same,Adverse event: Asthenia,[3],34%
same,Adverse event: Back Pain,[3],24%
same,Adverse event: Chest pain,[3],19%
same,Adverse event: Constipation,[3],35%
same,Adverse event: Cough Increased,[3],18%
same,Adverse event: Creatinine Increased,[3],45%
same,Adverse event: Diabetes Mellitus,[3],24%
same,Adverse event: Diarrhea,[3],44%
same,Adverse event: Dizziness,[3],19%
same,Adverse event: Dyspepsia,[3],28%
same,Adverse event: Dyspnea,[3],22%
same,Adverse event: Edema,[3],18%
same,Adverse event: Fever,[3],29%
same,Adverse event: Headache,[3],44%
same,Adverse event: Hyperglycemia,[3],22%
same,Adverse event: Hyperkalemia,[3],31%
same,Adverse event: Hyperlipemia,[3],31%
same,Adverse event: Hypertension,[3],50%
same,Adverse event: Hypokalemia,[3],22%
same,Adverse event: Hypomagnesemia,[3],34%
same,Adverse event: Hypophosphatemia,[3],49%
same,Adverse event: Infection,[3],45%
same,Adverse event: Insomnia,[3],32%
same,Adverse event: Leukopenia,[3],15%
same,Adverse event: Nausea,[3],38%
same,Adverse event: Pain,[3],32%
same,Adverse event: Paresthesia,[3],23%
same,Adverse event: Peripheral Edema,[3],36%
same,Adverse event: Pruritus,[3],15%
same,Adverse event: Rash,[3],17%
same,Adverse event: Urinary Tract Infection,[3],34%
same,Adverse event: Vomiting,[3],29%
same,Adverse event: Tremor,[3]; monohydrate,54%
same,dose at or above which mortalities were seen,"[4]; adult rats, IV",≥ 16 × the recommended human IV dose
same,dose at or above which mortalities were seen,"[4]; adult rats, oral",≥ 52 × the recommended human oral dose
same,dose at or above which mortalities were seen,"[4]; immature rats, oral",≥ 16 × the recommended oral dose
